Measured values as given in patent US20220395472A1 (Dermavant Sciences GmbH, priority 2021, published 2022).

Tested on: adults with plaque psoriasis
Test: Long-term open-label extension study (PSOARING 3): Physician Global Assessment (PGA), treatment episodes, treatment success, remittive effect
Assay type: in vivo, human
Settings: for Average Duration of Episodes, Mean (SD) / Average Duration of Episodes, Median / Average Duration of Treatment Success, Median / Duration of 1st Episode, Mean (SD) / Duration of 1st Episode, Median / Duration of 1st Success, Mean (SD) / Duration of 1st Success, Median / Duration of 2nd Episode, Mean (SD) / Duration of 2nd Episode, Median / Duration of 2nd Success, Mean (SD) / Duration of 2nd Success, Median / Duration of 3rd Episode, Mean (SD) / Duration of 3rd Episode, Median / Duration of 3rd Success, Mean (SD) / Duration of 3rd Success, Median / Duration of 4th Episode, Mean (SD) / Duration of 4th Episode, Median / Duration of Last Episode, Mean (SD) / Duration of Last Episode, Median / Duration of Last Success, Mean (SD) / Duration of Last Success, Median / Total Duration of Treatment Episodes, Mean (SD) / Total Duration of Treatment Episodes, Median / Total Duration of Treatment Success, Mean (SD) / Total Duration of Treatment Success, Median / Average Duration of Treatment Success (treatment free interval), Mean (SD) / Average Duration of Treatment Success, Mean (SD): ITT; for Average Duration of Treatment Success (treatment free interval), Mean (SD): Overall (n=299)
Experimental: This extension study consisted of up to 40 weeks of treatment and a 4 week, safety follow up period.
At the completion of the Week 12 visit of the DB, pivotal Phase 3 study, eligibility of the subjects opting to enroll in this extension study was confirmed. Study visits during the treatment period for all subjects occurred every 4 weeks (±3 days). A phone call was performed at Week 2 (Day 15). Unscheduled visits may have occurred, as needed. Subjects who withdrew from this study before Week 40 returned to the study center for an Early Termination visit. The total duration of this extension study participation was 44 weeks. Subjects in this study were treated as follows based on their PGA score from the Week 12 visit in the DB, pivotal Phase 3 study (Study DMVT 505 3001 or Study DMVT 505 3002).
The PGA was used to assess the primary efficacy endpoint in this study. The PGA is a clinical tool for assessing the current state/severity of a subject's psoriasis at a given time point. It is a static, 5 point, morphological assessment of overall disease severity, as determined by the Investigator, using the clinical characteristics of erythema, scaling, and plaque thickness/elevation as guidelines; higher PGA scores represent more severe disease (0=clear, 1=almost clear, 2=mild, 3=moderate, and 4=severe). The BSA affected was not considered in scoring of the PGA. Variations of the PGA are frequently used in clinical studies because it is a simple assessment, similar to those used in clinical practice. The PGA was performed first, prior to the % BSA, PASI, and LTS assessments.
Time to event parameters, such as the time from treatment success to subsequent worsening (PGA≥2) or duration of treatment episode, were summarized by the Kaplan Meier product limit method using OC.

CC(C)c1c(O)cc(/C=C/c2ccccc2)cc1O [Tapinarof, 3,5-Dihydroxy-4-isopropyl-trans-stilbene]
PGA 3 - Moderate (Baseline, Overall): 249 (32.8) n (%)
PGA 4 - Severe (Baseline, Overall): 23 (3.0) n (%)
PGA 0 - Clear (Baseline, Tapinarof (Pivotal)): 73 (14.5) n (%)
PGA 1 - Almost Clear (Baseline, Tapinarof (Pivotal)): 144 (28.5) n (%)
PGA 2 - Mild (Baseline, Tapinarof (Pivotal)): 188 (37.2) n (%)
PGA 3 - Moderate (Baseline, Tapinarof (Pivotal)): 93 (18.4) n (%)
PGA 4 - Severe (Baseline, Tapinarof (Pivotal)): 7 (1.4) n (%)
Average Duration of Episodes, Mean (SD) (Overall): 162.7 (96.20) days
Average Duration of Episodes, Median (Overall): 168.0 days
Average Duration of Treatment Success, Median (Overall): 84.0 days
Duration of 1st Episode, Mean (SD) (Overall): 163.1 (97.10) days
Duration of 1st Episode, Median (Overall): 169.0 days
Duration of 1st Success, Mean (SD) (Overall): 100.0 (78.49) days
Duration of 1st Success, Median (Overall): 84.0 days
Duration of 2nd Episode, Mean (SD) (Overall): 74.0 (55.35) days
Duration of 2nd Episode, Median (Overall): 57.0 days
Duration of 2nd Success, Mean (SD) (Overall): 65.4 (60.68) days
Duration of 2nd Success, Median (Overall): 41.0 days
Duration of 3rd Episode, Mean (SD) (Overall): 50.4 (41.38) days
Duration of 3rd Episode, Median (Overall): 32.5 days
Duration of 3rd Success, Mean (SD) (Overall): 30.0 (26.46) days
Duration of 3rd Success, Median (Overall): 28.0 days
Duration of 4th Episode, Mean (SD) (Overall): 1.0 (NE) days
Duration of 4th Episode, Median (Overall): 1.0 days
Duration of Last Episode, Mean (SD) (Overall): 162.4 (98.51) days
Duration of Last Episode, Median (Overall): 169.0 days
Duration of Last Success, Mean (SD) (Overall): 95.4 (82.18) days
Duration of Last Success, Median (Overall): 64.0 days
Total Duration of Treatment Episodes, Mean (SD) (Overall): 177.6 (90.38) days
Total Duration of Treatment Episodes, Median (Overall): 197.0 days
Total Duration of Treatment Success, Mean (SD) (Overall): 119.3 (81.80) days
Total Duration of Treatment Success, Median (Overall): 112.0 days
Average Duration of Treatment Success (treatment free interval), Mean (SD): 97.9 (76.60) days
Average Duration of Treatment Success (treatment free interval), Mean (SD) (listed as tapinarof): 97.9 days
Average Duration of Episodes, Mean (SD) (Tapinarof (Pivotal) group): 157.1 (97.16) days
Average Duration of Episodes, Median (Tapinarof (Pivotal) group): 140.5 days
Average Duration of Treatment Success, Mean (SD) (Tapinarof (Pivotal) group): 102.4 (77.90) days
Average Duration of Treatment Success, Median (Tapinarof (Pivotal) group): 84.0 days
Duration of 1st Episode, Mean (SD) (Tapinarof (Pivotal) group): 156.6 (98.77) days
Duration of 1st Episode, Median (Tapinarof (Pivotal) group): 147.5 days
Duration of 1st Success, Mean (SD) (Tapinarof (Pivotal) group): 103.0 (80.13) days
Duration of 1st Success, Median (Tapinarof (Pivotal) group): 84.0 days
Duration of 2nd Episode, Mean (SD) (Tapinarof (Pivotal) group): 80.7 (58.54) days
Duration of 2nd Episode, Median (Tapinarof (Pivotal) group): 60.5 days
Duration of 2nd Success, Mean (SD) (Tapinarof (Pivotal) group): 76.5 (63.07) days
Duration of 2nd Success, Median (Tapinarof (Pivotal) group): 56.0 days
Duration of 3rd Episode, Mean (SD) (Tapinarof (Pivotal) group): 49.6 (52.51) days
Duration of 3rd Episode, Median (Tapinarof (Pivotal) group): 28.0 days
Duration of 3rd Success, Mean (SD) (Tapinarof (Pivotal) group): 32.7 (28.40) days
Duration of 3rd Success, Median (Tapinarof (Pivotal) group): 28.5 days
Duration of Last Episode, Mean (SD) (Tapinarof (Pivotal) group): 157.6 (99.25) days
Duration of Last Episode, Median (Tapinarof (Pivotal) group): 168.0 days
Duration of Last Success, Mean (SD) (Tapinarof (Pivotal) group): 101.5 (83.51) days
Duration of Last Success, Median (Tapinarof (Pivotal) group): 82.5 days
Total Duration of Treatment Episodes, Mean (SD) (Tapinarof (Pivotal) group): 173.2 (92.39) days
Total Duration of Treatment Episodes, Median (Tapinarof (Pivotal) group): 196.0 days
Total Duration of Treatment Success, Mean (SD) (Tapinarof (Pivotal) group): 125.4 (83.22) days
Total Duration of Treatment Success, Median (Tapinarof (Pivotal) group): 116.5 days
Average Duration of Episodes, Mean (SD) (Vehicle (Pivotal) group): 173.4 (93.60) days
Average Duration of Episodes, Median (Vehicle (Pivotal) group): 195.0 days
Average Duration of Treatment Success, Mean (SD) (Vehicle (Pivotal) group): 86.8 (72.58) days
Average Duration of Treatment Success, Median (Vehicle (Pivotal) group): 64.0 days
Duration of 1st Episode, Mean (SD) (Vehicle (Pivotal) group): 175.5 (92.74) days
Duration of 1st Episode, Median (Vehicle (Pivotal) group): 196.0 days
Duration of 1st Success, Mean (SD) (Vehicle (Pivotal) group): 92.8 (74.32) days
Duration of 1st Success, Median (Vehicle (Pivotal) group): 85.0 days
Duration of 2nd Episode, Mean (SD) (Vehicle (Pivotal) group): 57.8 (43.31) days
Duration of 2nd Episode, Median (Vehicle (Pivotal) group): 38.0 days
Duration of 2nd Success, Mean (SD) (Vehicle (Pivotal) group): 39.1 (45.75) days
Duration of 2nd Success, Median (Vehicle (Pivotal) group): 28.0 days
Duration of 3rd Episode, Mean (SD) (Vehicle (Pivotal) group): 51.6 (24.51) days
Duration of 3rd Episode, Median (Vehicle (Pivotal) group): 56.0 days
Duration of 3rd Success, Mean (SD) (Vehicle (Pivotal) group): 19.3 (15.89) days
Duration of 3rd Success, Median (Vehicle (Pivotal) group): 28.0 days
Duration of 4th Episode, Mean (SD) (Vehicle (Pivotal) group): 1.0 (NE) days
Duration of 4th Episode, Median (Vehicle (Pivotal) group): 1.0 days
Duration of Last Episode, Mean (SD) (Vehicle (Pivotal) group): 171.4 (96.61) days
Duration of Last Episode, Median (Vehicle (Pivotal) group): 195.0 days
Duration of Last Success, Mean (SD) (Vehicle (Pivotal) group): 80.5 (77.32) days
Duration of Last Success, Median (Vehicle (Pivotal) group): 56.0 days
Total Duration of Treatment Episodes, Mean (SD) (Vehicle (Pivotal) group): 185.9 (85.95) days
Total Duration of Treatment Episodes, Median (Vehicle (Pivotal) group): 197.0 days
Total Duration of Treatment Success, Mean (SD) (Vehicle (Pivotal) group): 104.3 (76.62) days
